Experimental findings from publication PMC5487351, “Galactosylsphingamides: new α-GalCer analogues to probe the F’-pocket of CD1d” (Scientific Reports, 2017) are described below.

This assay deals with T1, mCD1d (mCD1-β2M) (Mus musculus, UniProt P11609).
T1 construct: gene Cd1d1; soluble CD1d ectodomain with beta2-microglobulin, insect cells; glycolipid-loaded; with Beta-2-microglobulin
T1 sequence (P11609 19-297): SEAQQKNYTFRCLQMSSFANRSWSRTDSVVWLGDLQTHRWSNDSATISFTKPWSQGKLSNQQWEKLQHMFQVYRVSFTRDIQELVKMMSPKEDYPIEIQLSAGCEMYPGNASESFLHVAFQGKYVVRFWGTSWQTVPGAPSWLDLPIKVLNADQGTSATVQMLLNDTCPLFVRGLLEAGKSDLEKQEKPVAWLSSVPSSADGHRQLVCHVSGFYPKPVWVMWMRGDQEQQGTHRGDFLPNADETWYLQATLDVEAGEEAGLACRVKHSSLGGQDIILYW
T1 sequence (P01887 21-119 partner): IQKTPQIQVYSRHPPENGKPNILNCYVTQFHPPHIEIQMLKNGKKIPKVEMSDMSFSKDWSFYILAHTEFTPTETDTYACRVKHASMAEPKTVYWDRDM
The experiment in a line: X-ray crystal structure, […] Å. Conditions: CD1d binding groove (A' and F' pockets); spacer lipid in A' pocket.

For `CCCCCCCC(=O)N[C@@H](CO[C@H]1O[C@H](CO)[C@H](O)[C@H](O)[C@H]1O)[C@H](O)[C@H](O)CCCC(=O)NCCCCCCc1ccccc1` [5d, (5R,6S,7S)-5,6-dihydroxy-8-O-(α-D-galactopyranosyl)-7-octanamido-N-(6-phenylhexyl)octanamide], the “X-ray crystal structure, 1.75 Å” value was “we determined the crystal structure of the CD1d/5d-complex”.
